Experimental findings from EPA's ToxValDB 9.5 (doi:10.2903/j.efsa.2008.128r) are described below.

One series deals with Anas platyrhynchos. The following applies: oral, mortality.
The test system of another series is Colinus virginianus. The following applies: for LD50: acute, oral, mortality.
For the next series, the system named is Mus musculus. As to conditions: acute; oral; mortality.
For the next series, the system named is Daphnia magna. As to conditions: chronic/long-term; duration: 21 days.
A further series deals with Apis mellifera. As to conditions: acute; duration: 48 hours; oral; unspecified; mortality.
In another series the test system is Canidae. As to conditions: subchronic; duration: 90 days; oral; Dog Other; organ weight.
For a further series, the system named is Typhlodromus pyri. The series can be described thus: LR50; higher = less toxic. The following applies: not reported; mortality.

`CC(C)N1C(=O)N(c2ccccc2)CSC1=NC(C)(C)C` [Buprofezin]: the LC50 with Oncorhynchus mykiss (acute, duration: 96 hours, mortality) was > 0.33 µg/mL; in the series with Anas platyrhynchos (short-term, feed), > 1310 mg/kg-day; in the series on Tagia sp. (acute, duration: 14 days, mortality), > 1000 mg/kg. For the same compound, the NOEC came out at 0.052 mg/L with Oncorhynchus mykiss (chronic/long-term, growth); 48 mg/kg-day in the series on Colinus virginianus (developmental, development); 198 mg/kg-day in the series on Colinus virginianus (reproduction developmental, reproduction); 500 mg/kg in the series on Tagia sp. (chronic/long-term, duration: 56 days, reproduction); 0.08 mg/L in the series with Daphnia magna. Further, the LD50 in the series with Anas platyrhynchos (acute, unspecified) was > 2000 mg/kg-day; in the series on Colinus virginianus (diet) it was > 1310 mg/kg-day; in the series on Colinus virginianus, > 2000 mg/kg-day; in the series with Mus musculus, > 2000 mg/kg-day; with Apis mellifera, > 164 µg/piece; with Rattus norvegicus (acute, oral, mortality), > 2000 mg/kg-day. Further, the NOAEL (usually the highest dose or exposure tested at which no adverse effect was seen) amounted to 10 mg/kg-day in the series with Canidae; 0.9 mg/kg-day in the series on Rattus norvegicus (chronic, duration: 2 years, oral, diet, M/F, organ weight); 50 mg/kg-day in the series with Rattus norvegicus (developmental, development); 66 mg/kg-day in the series with Rattus norvegicus (reproduction developmental, body weight). Also, the LR50 in the series with Typhlodromus pyri is > 3000 g/ha.
